Values belong to the compound of their own block, whether it stands above or below them.
Legend:
[1] = target: T1, adenosine A1 receptor (Rattus norvegicus, UniProt P25099); assay: Adenosine A1 Receptor Binding Test (3H-CHA binding, corpus striatum); details: 3H-CHA 1.1 nM, 25° C., 90 minutes
T1 construct: from tissue; host or cells: rat corpus striatum, washed membrane suspension
T1 sequence (P25099 1-326): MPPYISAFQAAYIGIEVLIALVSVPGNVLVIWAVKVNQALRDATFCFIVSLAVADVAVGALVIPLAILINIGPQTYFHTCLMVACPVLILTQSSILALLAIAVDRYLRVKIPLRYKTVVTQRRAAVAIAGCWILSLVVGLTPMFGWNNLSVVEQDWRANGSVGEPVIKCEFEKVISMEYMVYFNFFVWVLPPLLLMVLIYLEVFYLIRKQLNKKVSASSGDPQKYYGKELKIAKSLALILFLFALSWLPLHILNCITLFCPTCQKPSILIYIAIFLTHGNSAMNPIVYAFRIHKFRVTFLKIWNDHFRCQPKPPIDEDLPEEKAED
Description: The test was conducted according to the method of Bruns et al. [Mol. Pharmacol., 29, 331 (1986)] with slight modification.
Corpus striatum of a rat was suspended in ice-cooled 50 mM Tris hydroxymethyl aminomethane hydrochloride (Tris HCl) buffer (pH 7.7) by using Polytron homogenizer (manufactured by Kinematicas Co.) The suspension was centrifuged (50,000×g, 10 minutes), and the precipitate was suspended again in the same amount of 50 mM Tris HCl buffer. The suspension was centrifuged under the same conditions, and the final precipitate was suspended once again in 50 mM Tris HCl buffer to give a tissue concentration of 100 mg (wet weight)/ml. The tissue suspension was allowed to stand at 37° C. for 30 minutes in the presence of 0.02 unit/mg tissue of adenosine deaminase (manufactured by Sigma Co.) The tissue suspension was centrifuged (50,000×g, 10 minutes) and to the obtained precipitates was added 50 mM Tris HCl buffer to give a tissue concentration of 10 mg (wet weight)/ml.
To 1 ml of the tissue suspension thus prepared were added 50 μl of cyclohexyladenosine labeled with tritium (^3 H-CHA: 27 Ci/mmol, manufactured by New England Nuclear) (final concentration: 1.1 nM) and 50 μl of a test compound. The resulting mixture was allowed to stand at 25° C. for 90 minutes and then rapidly filtered by suction through a glass fiber filter (GF/C, manufactured by Whatman Co.) The filter was immediately washed three times with 5 ml each of ice-cooled 50 mM Tris HCl buffer, and transferred to a vial, and a scintillator (EX-H, manufactured by Wako Pure Chemical Industries, Ltd.) was added thereto. The radioactivity on the filter was determined with a liquid scintillation counter (manufactured by Packard Instrument Co.)
The inhibition rate (Ki value) of the test compound against the binding of A1 receptors (^3 H-CHA binding) was calculated by the equation of Cheng-Prusoff. [formula] [Notes]1. "B" means the amount of radioactivity of ^3 H-CHA bound in the presence of a test compound at various concentrations.
2. "T" means the amount of radioactivity of ^3 H-CHA bound in the absence of a test compound.
3. "IN" means the amount of radioactivity of ^3 H-CHA bound in the presence of 10 μM N^6 -(L-2-phenylisopropyl)-adenosine (Sigma Co.)

[2] = test system: Wistar rats; assay: Diuretic Effect; type: in vivo, rat (Wistar, male); details: for Increase in amount of K+ excreted / Increase in amount of Na+ excreted / Increase in amount of urine: control 0
Description: The experiment was carried out by using Wistar rats (male; 150 to 300 g). The rats were starved for 18 hours prior to the administration of a test compound (n=4 to 5). After a test compound dissolved in 0.4% methanol, 1% dimethylsulfoxde, and 0.01N sodium hydroxide/physiological saline was administered intravenously to the rat, the physiological saline (25 ml/kg) was orally administered thereto. Alternatively, a test compound dissolved in the physiological saline (25 ml/kg) was orally administered to the rats. Urine was collected from the rats during 4 hours after the oral administration, and urine volume was measured by a graduated measuring cylinder, and the electrolytes (Na^+ and K^+) in the urine were determined by flame photometer (775A, manufactured by Hitachi, Ltd.) The test results are shown in Tables 3 and 4.

[3] = test system: Wistar rats, glycerol-induced renal insufficiency; assay: Renal-Protecting Activity (Glycerol-Induced Renal Insufficiency Model); type: in vivo, rat (Wistar, male); details: for effect on increases in serum creatinine and serum urea-nitrogen: 10 mg/kg, ip
Description: Renal insufficiency is the condition that homeostasis of a body fluid is unable to be maintained by disorder of renal function. It is known that subcutaneous or intramuscular administration of glycerol to rats induces acute renal insufficiency characterized by renal tubular disturbance [Can. J. Physiol.
Male Wistar rats were fisted from both food and water for 18 hours. A test compound was intraperitoneally administered to the rats (dose; 0.1 ml/100 g). After 30 minutes, the rats were anesthetized with ether and the back skin was picked up and 0.8 ml/100 […] of 50% glycerol was subcutaneously administered. Twenty four hours after the glycerol injection, the rats were anesthetized with ether and 5 ml of blood was collected from the descending aorta. A sample of the collected blood was allowed to stand for 30 minutes or longer and then centrifuged at 3,000 rpm for 10 minutes to obtain the serum. Creatinine in the serum sample and urea nitrogen in the serum were determined with an autoanalyzer (AU510, Olympus Optical Co., Ltd.) using Olympus AU500/550 exclusive reagent "Katayama" in both of creatinine test (Jaffe' method) and urea-nitrogen test (enzyme method).

[4] = 0.1 mg/kg po, 4 hours, control 1.00
[5] = 1.6 mg/kg po, 4 hours, control 1.00
[6] = 1 mg/kg ip, 24 hours after glycerol, control 4.57 ± 0.31, ***p < 0.001 (Student's t test)
[7] = 1 mg/kg ip, 24 hours after glycerol, control 164.9 ± 10.3, ***p < 0.001 (Student's t test)
[8] = 0.01 mg/kg po, 4 hours, control 1.00

Structure (SMILES): CCCn1c(=O)c2[nH]c([C@@]34C[C@H]5C[C@@H]3C[C@@H](C4)[C@@H]5O)nc2n(CCC)c1=O [Compound 1, 8-(Trans-9-hydroxy-3-tricyclo[3.3.1.0^3,7]nonyl)-1,3-dipropylxanthine]
Ki [1]: 0.23 nM | Amount of K+ excreted ([2]; 3 μg/kg iv, n = 5, 4 hours, control 1.47 ± 0.31): 1.24 ± 0.10 mEq/kg | Na+/K+ ([2]; 3 μg/kg iv, n = 5, 4 hours, control 1.52): 2.99 | Amount of Na+ excreted ([2]; 3 μg/kg iv, n = 5, 4 hours, control 2.23 ± 0.61, **p < 0.01 (Dunnett's test)): 3.71 ± 0.12 mEq/kg | Amount of urine ([2]; 3 μg/kg iv, n = 5, 4 hours, control 14.5 ± 1.8, *p < 0.05 (Dunnett's test)): 26.4 mL/kg | Increase in amount of K+ excreted ([2]; 0.01 mg/kg po, 4 hours): 11% | Increase in amount of Na+ excreted ([2]; 0.01 mg/kg po, 4 hours): 139% | Increase in amount of urine ([2]; 0.01 mg/kg po, 4 hours): 99% | Na+/K+ [2, 8]: 2.16 | Increase in amount of K+ excreted ([2]; 0.1 mg/kg po, 4 hours): -9% | Increase in amount of Na+ excreted ([2]; 0.1 mg/kg po, 4 hours): 148% | Increase in amount of urine ([2]; 0.1 mg/kg po, 4 hours): 105% | Na+/K+ [2, 4]: 2.72 | Amount of creatinine in serum ([3]; 0.01 mg/kg ip, 24 hours after glycerol; control 4.35 ± 0.23; **^1) p < 0.01 (Dunnett's test)): 2.00 ± 0.21 mg/dL | Amount of urea-nitrogen in serum ([3]; 0.01 mg/kg ip, 24 hours after glycerol; control 139.7 ± 10.2; marked ***^1)): 69.9 ± 8.4 mg/dL | Amount of creatinine in serum ([3]; 0.1 mg/kg ip, 24 hours after glycerol; control 4.35 ± 0.23; **^1) p < 0.01 (Dunnett's test)): 2.32 ± 0.16 mg/dL | Amount of urea-nitrogen in serum ([3]; 0.1 mg/kg ip, 24 hours after glycerol; control 139.7 ± 10.2; **^1) p < 0.01 (Dunnett's test)): 64.4 ± 4.5 mg/dL

Structure (SMILES): CCCn1c(=O)c2[nH]c([C@@]34C[C@H]5C[C@@H]3C[C@@H](C4)[C@H]5O)nc2n(CCC)c1=O [Compound 4, 8-(cis-9-hydroxy-3-tricyclo[3.3.1.0^3,7]nonyl)-1,3-dipropylxanthine]
Ki [1]: 0.31 nM | Increase in amount of K+ excreted ([2]; 0.01 mg/kg po, 4 hours): 43% | Increase in amount of Na+ excreted ([2]; 0.01 mg/kg po, 4 hours): 167% | Increase in amount of urine ([2]; 0.01 mg/kg po, 4 hours): 200% | Na+/K+ [2, 8]: 1.86 | Increase in amount of K+ excreted ([2]; 1.6 mg/kg po, 4 hours): 35% | Increase in amount of Na+ excreted ([2]; 1.6 mg/kg po, 4 hours): 180% | Increase in amount of urine ([2]; 1.6 mg/kg po, 4 hours): 232% | Na+/K+ [2, 5]: 2.07 | Amount of creatinine in serum [3, 6]: 2.00 ± 0.17 mg/dL | Amount of urea-nitrogen in serum [3, 7]: 76.0 ± 8.8 mg/dL

Structure (SMILES): CCCn1c(=O)c2[nH]c([C@]34C[C@@H]5[C@@H](O)[C@H](C3)[C@H]3[C@@H]5[C@H]34)nc2n(CCC)c1=O [Compound 5, 8-(Trans-9-hydroxy-3-tetracyclo[3.3.1.0^3,7 .0^6,8]-nonyl)-1,3-dipropylxanthine]
Ki [1]: 0.31 nM | Increase in amount of K+ excreted ([2]; 0.0025 mg/kg po, 4 hours): 8% | Increase in amount of Na+ excreted ([2]; 0.0025 mg/kg po, 4 hours): 68% | Increase in amount of urine ([2]; 0.0025 mg/kg po, 4 hours): 77% | Na+/K+ ([2]; 0.0025 mg/kg po, 4 hours, control 1.00): 1.56 | Increase in amount of K+ excreted ([2]; 0.1 mg/kg po, 4 hours): 23% | Increase in amount of Na+ excreted ([2]; 0.1 mg/kg po, 4 hours): 277% | Increase in amount of urine ([2]; 0.1 mg/kg po, 4 hours): 256% | Na+/K+ [2, 4]: 3.07 | Amount of creatinine in serum ([3]; 0.01 mg/kg ip, 24 hours after glycerol, control 3.90 ± 0.24, ***p < 0.001): 2.18 ± 0.11 mg/dL | Amount of urea-nitrogen in serum ([3]; 0.01 mg/kg ip, 24 hours after glycerol, control 124.9 ± 7.5, ***p < 0.001): 61.3 ± 6.1 mg/dL

Structure (SMILES): Cn1c(=O)c2[nH]cnc2n(C)c1=O [aminophylline, reference compound]
effect on increases in serum creatinine and serum urea-nitrogen [3]: only a weak inhibitory tendancy

Structure (SMILES): NS(=O)(=O)c1cc(C(=O)O)c(NCc2ccco2)cc1Cl [furosemide, reference compound]
effect on increases in serum creatinine and serum urea-nitrogen [3]: a tendancy of deterioration

Further lines, with some results ahead:

Ki [1]: 0.24 nM
Structure (SMILES): CCCn1c(=O)c2[nH]c([C@]34C[C@@H]5C[C@H](C3)[C@@H](O)[C@H]4C5)nc2n(CCC)c1=O (relative stereo) [Compound 2, 8-(trans-6-hydroxy-3-tricyclo[3.3.1.0^3,7]nonyl)-1,3-dipropylxanthine]
Increase in amount of K+ excreted ([2]; 0.1 mg/kg po, 4 hours): 12% | Increase in amount of Na+ excreted ([2]; 0.1 mg/kg po, 4 hours): 107% | Increase in amount of urine ([2]; 0.1 mg/kg po, 4 hours): 134% | Na+/K+ [2, 4]: 1.85 | Increase in amount of K+ excreted ([2]; 1.6 mg/kg po, 4 hours): 15% | Increase in amount of Na+ excreted ([2]; 1.6 mg/kg po, 4 hours): 220% | Increase in amount of urine ([2]; 1.6 mg/kg po, 4 hours): 297% | Na+/K+ [2, 5]: 2.77 | Amount of creatinine in serum [3, 6]: 1.88 ± 0.20 mg/dL | Amount of urea-nitrogen in serum [3, 7]: 58.0 ± 8.8 mg/dL

Ki [1]: 0.5 nM
Structure (SMILES): CCCn1c(=O)c2[nH]c(C34CC5CC3CC(O)(C5)C4)nc2n(CCC)c1=O (stereo not drawn) [Compound 3, 8-(1-hydroxy-3-tricyclo[3.3.1.0^3,7]nonyl)-1,3-dipropylxanthine]
Increase in amount of K+ excreted ([2]; 0.025 mg/kg po, 4 hours): 32% | Increase in amount of Na+ excreted ([2]; 0.025 mg/kg po, 4 hours): 238% | Increase in amount of urine ([2]; 0.025 mg/kg po, 4 hours): 324% | Na+/K+ ([2]; 0.025 mg/kg po, 4 hours, control 1.00): 2.55 | Increase in amount of K+ excreted ([2]; 0.1 mg/kg po, 4 hours): 18% | Increase in amount of Na+ excreted ([2]; 0.1 mg/kg po, 4 hours): 272% | Increase in amount of urine ([2]; 0.1 mg/kg po, 4 hours): 356% | Na+/K+ [2, 4]: 3.15 | Amount of creatinine in serum ([3]; 0.03 mg/kg ip, 24 hours after glycerol, control 3.57 ± 0.21, ***p < 0.001): 1.64 ± 0.17 mg/dL | Amount of urea-nitrogen in serum ([3]; 0.03 mg/kg ip, 24 hours after glycerol, control 149.7 ± 7.0, ***p < 0.001): 49.0 ± 6.9 mg/dL
